Measurements as given in PubChem BioAssay (NCI).
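Five concentrations, 48 hours, 96-well plates. The concentration for full growth arrest is given as TGI.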

Experiments:
Assay in all cases: growth of human tumour cells (NCI), 48 h
[1] = tested on: K-562 leukemia
[2] = tested on: HT29 colon
[3] = tested on: MALME-3M melanoma
[4] = tested on: MOLT-4 leukemia
[5] = tested on: KM20L2 colon
[6] = tested on: COLO 205 colon
[7] = tested on: HOP-62 NSCLC
[8] = tested on: 786-0 renal
[9] = tested on: LXFL 529 NSCLC
[10] = tested on: SF-268 CNS
[11] = tested on: SNB-78 CNS
[12] = tested on: SF-295 CNS
[13] = tested on: EKVX NSCLC
[14] = tested on: OVCAR-8 ovarian
[15] = tested on: NCI-H460 lung
[16] = tested on: SK-MEL-5 melanoma
[17] = tested on: SK-MEL-2 melanoma
[18] = tested on: SN12C renal
[19] = tested on: HOP-92 NSCLC
[20] = tested on: HL-60(TB) leukemia
[21] = tested on: SF-539 CNS
[22] = tested on: M14 melanoma
[23] = tested on: HOP-18 NSCLC
[24] = tested on: SNB-19 CNS
[25] = tested on: A498 renal
[26] = tested on: OVCAR-4 ovarian
[27] = tested on: NCI-H23 lung
[28] = tested on: IGROV1 ovarian
[29] = tested on: HCC-2998 colon
[30] = tested on: SW-620 colon
[31] = tested on: SK-MEL-28 melanoma
[32] = tested on: RPMI-8226 leukemia
[33] = tested on: HCT-15 colon
[34] = tested on: DLD-1 colon
[35] = tested on: A549 NSCLC
[36] = tested on: OVCAR-5 ovarian
[37] = tested on: HCT-116 colon
[38] = tested on: UACC-62 melanoma
[39] = tested on: NCI-H522 lung
[40] = tested on: U251 CNS
[41] = tested on: M19-MEL melanoma
[42] = tested on: UO-31 renal
[43] = tested on: CCRF-CEM leukemia
[44] = tested on: SNB-75 CNS
[45] = tested on: RXF 393 renal
[46] = tested on: KM12 colon
[47] = tested on: UACC-257 melanoma
[48] = tested on: DMS 114 small cell lung
[49] = tested on: ACHN renal
[50] = tested on: LOX IMVI melanoma
[51] = tested on: OVCAR-3 ovarian
[52] = tested on: CAKI-1 renal
[53] = tested on: SK-OV-3 ovarian
[54] = tested on: TK-10 renal
[55] = tested on: XF 498 CNS
[56] = tested on: SR leukemia
[57] = tested on: NCI-H226 lung

For `Cc1nc(/C=C2\C(=O)C=Cc3ccccc32)c(O)o1`, the TGI [1] was > 100 µM, the TGI [2] was > 100 µM and the TGI [3] was > 100 µM. For the same compound, the TGI [4] was > 100 µM, the TGI [5] was > 100 µM and the TGI [6] was > 100 µM. The TGI [7] was > 100 µM, the TGI [8] was > 100 µM and the TGI [9] was > 100 µM. The TGI [10] was > 100 µM, the TGI [11] was > 100 µM and the TGI [12] was > 100 µM. The TGI [13] was > 100 µM, the TGI [14] was > 100 µM and the TGI [15] was > 100 µM. The TGI [16] was > 100 µM, the TGI [17] was > 100 µM and the TGI [18] was > 100 µM. For the same compound, the TGI [19] was > 100 µM, the TGI [20] was > 100 µM and the TGI [21] was > 100 µM. For the same compound, the TGI [22] was > 100 µM, the TGI [23] was > 100 µM and the TGI [24] was > 100 µM. For the same compound, the TGI [25] was > 100 µM, the TGI [26] was > 100 µM and the TGI [27] was > 100 µM. The TGI [28] was > 100 µM, the TGI [29] was > 100 µM and the TGI [30] was > 100 µM. The TGI [31] was > 100 µM, the TGI [32] was > 100 µM and the TGI [33] was > 100 µM. The TGI [34] was > 100 µM, the TGI [35] was > 100 µM and the TGI [36] was > 100 µM. The TGI [37] was > 100 µM, the TGI [38] was > 100 µM and the TGI [39] was > 100 µM. For the same compound, the TGI [40] was > 100 µM, the TGI [41] was > 100 µM and the TGI [42] was > 100 µM. For the same compound, the TGI [43] was > 100 µM, the TGI [44] was 40.4 µM and the TGI [45] was > 100 µM. The TGI [46] was > 100 µM, the TGI [47] was > 100 µM and the TGI [48] was > 100 µM. For the same compound, the TGI [49] was > 100 µM.
For `Cc1nc(N)nc(N)c1CCCc1ccccc1`, the TGI [1] was > 100 µM, the TGI [2] was > 100 µM and the TGI [50] was > 100 µM. For the same compound, the TGI [51] was > 100 µM, the TGI [52] was > 100 µM and the TGI [3] was 95.7 µM. The TGI [53] was > 100 µM, the TGI [4] was > 100 µM and the TGI [5] was > 100 µM. The TGI [6] was > 100 µM, the TGI [7] was 56.8 µM and the TGI [8] was > 100 µM. The TGI [9] was > 100 µM, the TGI [10] was > 100 µM and the TGI [11] was > 100 µM. The TGI [12] was > 100 µM, the TGI [13] was > 100 µM and the TGI [14] was > 100 µM. For the same compound, the TGI [15] was > 100 µM, the TGI [16] was > 100 µM and the TGI [54] was > 100 µM. For the same compound, the TGI [17] was > 100 µM, the TGI [18] was 51.9 µM and the TGI [55] was > 100 µM. For the same compound, the TGI [19] was 46.6 µM, the TGI [20] was 71.7 µM and the TGI [21] was > 100 µM. The TGI [22] was 64.2 µM, the TGI [24] was > 100 µM and the TGI [26] was > 100 µM. The TGI [27] was > 100 µM, the TGI [28] was > 100 µM and the TGI [29] was 39.2 µM. For the same compound, the TGI [30] was > 100 µM, the TGI [31] was 86.1 µM and the TGI [32] was > 100 µM. The TGI [33] was > 100 µM, the TGI [34] was > 100 µM and the TGI [35] was > 100 µM. The TGI [36] was > 100 µM, the TGI [37] was > 100 µM and the TGI [38] was > 100 µM. For the same compound, the TGI [39] was > 100 µM, the TGI [40] was > 100 µM and the TGI [41] was > 100 µM. The TGI [42] was > 100 µM, the TGI [56] was > 100 µM and the TGI [43] was > 100 µM. For the same compound, the TGI [44] was > 100 µM, the TGI [46] was > 100 µM and the TGI [47] was > 100 µM. For the same compound, the TGI [48] was > 100 µM, the TGI [49] was > 100 µM and the TGI [57] was > 100 µM.
